In patent publication US20180311220A1, “TREATMENT OF CANCERS WITH ACQUIRED RESISTANCE TO KIT INHIBITORS” (Bayer HealthCare LLC, priority 2007, published 2018) one finds IC50 data, which are given here for one molecule.

Each structure is given as a SMILES string.

What all share (assay type): cell-based, murine
The test system of test [1] is Ba/F3 cells expressing human c-KIT with exon 11 deletion (residues 557-558). The experiment in a line: Ba/F3 cell proliferation assay (CellTiter-Glo), c-KIT exon 11 deletion. Particulars: BaF3, n ≥ 3, 72 h incubation, read-out: Average IC50 for c-KIT-expressing Ba/F3 cellular proliferation, Exon 11 Deletion. As to the method: (§1) The cDNA encoding full length human c-KIT with a deletion in exon 11 that removed amino acid residues 557-558 was ligated into the mammalian expression vector pClneo (Promega). […] All mutations were confirmed by DNA sequencing.
(§2) Selective pressure was applied to the transfected cells by removing IL-3 from the culture medium. After IL-independent populations, further selective pressure was applied by also growing the cells in the presence of 1 mg/mL G418. […] The stable pools were further characterized by sequencing genomic DNA to confirm the presence of the transfected c-KIT cDNA.
(§3) This assay utilizes cellular ATP as a marker for cell proliferation/viability. On day 1, Ba/F3 cells were plated in 96 well dishes (Costar 3603) at 10,000 cells per well in 10% FBS in RPMI medium with 1 mg/ml G418. […] Plates were then incubated in a 5% CO2 incubator at 37° C. for 3 days. […] The cells were then incubated on a shaker for 5 minutes at room temperature, and luminescence was measured on a Victor 5 (Perkin Elmer) spectrophotometer.
(§4) Growth inhibition was measured by comparing luminescence signal from treated vs. untreated cells in assay plates, and the IC50 analysis of cell proliferation inhibition by compounds was analyzed using Analyze 5 in-house software. The IC50 values are mean values calculated from at least three experiments.
Background: ATP-based viability assays read luminescence as a measure of living cells.

In test [2] the test system is Ba/F3 cells expressing human c-KIT exon 11 deletion + V654A. Description: Ba/F3 cell proliferation assay (CellTiter-Glo), c-KIT exon 11 deletion + V654A. Particulars: BaF3; Exon 11 + V654A; n ≥ 3; 72 h incubation; read-out: Average IC50 for c-KIT-expressing Ba/F3 cellular proliferation, Eson 11 + V654A. As to the method: as §1, §2, §3, §4
Test [3] deals with Ba/F3 cells expressing human c-KIT exon 11 deletion + T6701. The experiment in a line: Ba/F3 cell proliferation assay (CellTiter-Glo), c-KIT exon 11 deletion + T6701. To be noted: BaF3; Exon 11 +T6701; n ≥ 3; 72 h incubation; read-out: Average IC50 for c-KIT-expressing Ba/F3 cellular proliferation, Exon 11 +T6701. As to the method: as §1, §2, §3, §4
The subject of test [4] is Ba/F3 cells expressing human c-KIT exon 11 deletion + D816G. Description: Ba/F3 cell proliferation assay (CellTiter-Glo), c-KIT exon 11 deletion + D816G. Particulars: BaF3; Exon 11 + D816G; n ≥ 3; 72 h incubation; read-out: Average IC50 for c-KIT-expressing Ba/F3 cellular proliferation, Exon 11 + D816G. The protocol: as §1, §2, §3, §4
In test [5] the test system is Ba/F3 cells expressing human c-KIT exon 11 deletion + N822K. The experiment in a line: Ba/F3 cell proliferation assay (CellTiter-Glo), c-KIT exon 11 deletion + N822K. To be noted: BaF3; Exon 11 + N822K; n ≥ 3; 72 h incubation; read-out: Average IC50 for c-KIT-expressing Ba/F3 cellular proliferation, Exon 11 + N822K. The protocol: as §1, §2, §3, §4
In test [6] the test system is Ba/F3 cells expressing human c-KIT exon 11 deletion + Y823D. Description: Ba/F3 cell proliferation assay (CellTiter-Glo), c-KIT exon 11 deletion + Y823D. Particulars: BaF3; Exon 11 + Y823D; n ≥ 3; 72 h incubation; read-out: Average IC50 for c-KIT-expressing Ba/F3 cellular proliferation, Exon 11 + Y823D. As to the method:
as §1, §2, §3, §4

For the molecule `CNC(=O)c1cc(Oc2ccc(NC(=O)Nc3ccc(Cl)c(C(F)(F)F)c3)c(F)c2)ccn1` [DAST, 4{4-[3-(4-chloro-3-trifluoromethylphenyl)-ureido]-3-fluorophenoxy}-pyridine-2-carboxylic acid methylamide], the IC50 in test [1] stood at 7 nM; in test [2] it was 38 nM; in test [3], 19 nM; in test [4] it was 14 nM; in test [5] it was 12 nM; in test [6], 129 nM.
